Measurements: ChEMBL document CHEMBL5223122, “Discovery and preclinical evaluations of GST-HG131, a novel HBV antigen inhibitor for the treatment of chronic hepatitis B infection” (Bioorg Med Chem Lett, 2022)
pEC50: −log10 of the molar value. Blank lines part the entries; values can stand above or below the molecule they belong to. Activity calls are given as the source filed them. The calls are words filed in the database; no cut-off is given here.

Tests used:
Hepatitis B virus [1] = assay: Antiviral activity against HBV infected in human HepG2.2.15 cells assessed as reduction of 3.5 Kb HBV RNA level at 50 nM and incubated for 4 to 48 hrs by Northern blot anlaysis; format: functional, organism-based; conditions: time 4-48 hrs
[2] = Toxicity in mouse infected with AAV encapsidated HBV assessed as change in body weight at 1 mg/kg, po QD for 4 weeks; format: organism-based; conditions: in vivo, 672 h
Hepatitis B virus [3] = assay: Antiviral activity against HBV infected in human primary hepatocytes assessed as reduction on HBeAg level by ELISA; format: functional, organism-based; conditions: Hepatocyte
Hepatitis B virus [4] = assay: Antiviral activity against HBV infected in human primary hepatocytes assessed as HBV DNA reduction by qPCR method; format: functional, organism-based; conditions: Hepatocyte
Hepatitis B virus [5] = assay: Antiviral activity against HBV infected in human primary hepatocytes assessed as reduction on HBsAg level by ELISA; format: functional, organism-based; conditions: Hepatocyte
Hepatitis B virus [6] = assay: Antiviral activity against HBV infected in human HepG2.2.15 assessed as reduction on HBsAg level by ELISA; format: functional, organism-based
Hepatitis B virus [7] = assay: Antiviral activity against HBV infected in human HepG2.2.15 assessed as HBV DNA reduction by qPCR method; format: functional, organism-based
[8] = Half life in Sprague-Dawley rat at 1 mg/kg, iv; format: ADME, organism-based; conditions: in vivo
[9] = Volume of distribution in steady state in Sprague-Dawley rat at 1 mg/kg, iv; format: ADME, organism-based; conditions: in vivo, read-out: Vdss
[10] = Oral bioavailability in Sprague-Dawley rat at 2 mg/kg; format: ADME, organism-based; conditions: in vivo
[11] = AUC (0-last) in C57BL/6 mouse at 2 mg/kg, po; format: ADME, organism-based; parameters: dose 2 mg/kg, route po; conditions: in vivo
[12] = Clearance in C57BL/6 mouse at 1 mg/kg, iv; format: ADME, organism-based; conditions: in vivo
[13] = Oral bioavailability in C57BL/6 mouse at 2 mg/kg; format: ADME, organism-based; conditions: in vivo
[14] = Cmax in Sprague-Dawley rat at 2 mg/kg, po; format: ADME, organism-based; parameters: dose 2 mg/kg, route po; conditions: in vivo
[15] = Half life in C57BL/6 mouse at 1 mg/kg, iv; format: ADME, organism-based; conditions: in vivo
[16] = Clearance in Sprague-Dawley rat at 1 mg/kg, iv; format: ADME, organism-based; conditions: in vivo
[17] = Cmax in C57BL/6 mouse at 2 mg/kg, po; format: ADME, organism-based; parameters: dose 2 mg/kg, route po; conditions: in vivo
[18] = Volume of distribution in steady state in C57BL/6 mouse at 1 mg/kg, iv; format: ADME, organism-based; conditions: in vivo, read-out: Vdss
[19] = AUC (0-last) in Sprague-Dawley rat at 2 mg/kg, po; format: ADME, organism-based; parameters: dose 2 mg/kg, route po; conditions: in vivo
[20] = Toxicity in rat assessed as decrease in normal rectal temperature at 300 mg/kg, po; format: organism-based; conditions: in vivo
Hepatitis B virus [21] = assay: In vivo antiviral activity against AAV encapsidated HBV infected in mouse assessed as reduction in HBeAg level at 10 mg/kg, po QD for 4 weeks by ELISA; format: functional, organism-based
[22] = Toxicity in rat assessed as mydriasis at 300 to 1000 mg/kg, po; format: organism-based; conditions: in vivo, dose 300-1000 mg/kg
[23] = Toxicity in rat assessed as mild central lobular hepatocyte degeneration of liver at 1000 mg/kg, po QD for 14 days; format: organism-based; conditions: hepatocytes, 336 h, time 14 day
[24] = Toxicity in rat assessed as mild myocardial degeneration of heart at 1000 mg/kg, po QD for 14 days; format: organism-based; conditions: in vivo, 336 h, time 14 day
[25] = Toxicity in rat assessed as organ abnormality at 100 to 300 mg/kg, po QD for 14 days; format: organism-based; conditions: in vivo, 336 h, dose 100-300 mg/kg, time 14 day
Hepatitis B virus [26] = assay: In vivo antiviral activity against AAV encapsidated HBV infected in mouse assessed as reduction in HBsAg level at 10 mg/kg, po QD for 4 weeks by ELISA; format: functional, organism-based
[27] = Toxicity in rat assessed as mild white myeloid lymphocytopenia of spleen at 1000 mg/kg, po QD for 14 days; format: organism-based; conditions: in vivo, 336 h, time 14 day
[28] = Toxicity in rat assessed as moderate acute mucosal inflammation of duodenum at 1000 mg/kg, po QD for 14 days; format: organism-based; conditions: in vivo, 336 h, time 14 day
[29] = Toxicity in mouse infected with AAV encapsidated HBV assessed as change in body weight at 10 mg/kg, po QD for 4 weeks; format: organism-based; conditions: in vivo, 672 h
[30] = Toxicity in rat assessed as decrease in normal rectal temperature at 1000 mg/kg, po; format: organism-based; conditions: in vivo
Hepatitis B virus [31] = assay: In vivo antiviral activity against AAV encapsidated HBV infected in mouse assessed as reduction in HBeAg level at 1 mg/kg, po QD for 4 weeks in presence of (R)-7-(tert-butyl)-2-methoxy-3-(3-methoxypropoxy)-11-oxo-6,7-dihydro-11H-benzo[f]pyrido[1,2-d][1,4]oxazepine-10-carboxylic acid by ELISA; format: functional, organism-based
Hepatitis B virus [32] = assay: In vivo antiviral activity against AAV encapsidated HBV infected in mouse assessed as reduction in HBsAg level at 1 mg/kg, po QD for 4 weeks in presence of (R)-7-(tert-butyl)-2-methoxy-3-(3-methoxypropoxy)-11-oxo-6,7-dihydro-11H-benzo[f]pyrido[1,2-d][1,4]oxazepine-10-carboxylic acid by ELISA; format: functional, organism-based
Hepatitis B virus [33] = assay: In vivo antiviral activity against AAV encapsidated HBV infected in mouse assessed as reduction in HBV DNA at 1 mg/kg, po QD for 4 weeks in presence of (R)-7-(tert-butyl)-2-methoxy-3-(3-methoxypropoxy)-11-oxo-6,7-dihydro-11H-benzo[f]pyrido[1,2-d][1,4]oxazepine-10-carboxylic acid by qPCR method; format: functional, organism-based

Compound: C=C1[C@H](CO)[C@@H](O)C[C@@H]1n1cnc2c(=O)[nH]c(N)nc21.O [ENTECAVIR]
Activity (Hepatitis B virus [1]): inactive
Activity [2]: Non-Toxic
pEC50 (Hepatitis B virus [3]): < 10.30
pEC50 (Hepatitis B virus [4]): 11.11
pEC50 (Hepatitis B virus [5]): < 10.30

pEC50 (Hepatitis B virus [6]): 7.33
pEC50 (Hepatitis B virus [7]): 7.35
Compound: CC[C@@H]1COc2cc(OCCCOC)c(Cl)cc2-c2cc(=O)c(C(=O)O)cn21

pEC50 (Hepatitis B virus [6]): 6.89
pEC50 (Hepatitis B virus [7]): 6.99
Compound: COCCCOc1cc2c(cc1Cl)-c1cc(=O)c(C(=O)O)cn1[C@H](CC(C)C)CO2

pEC50 (Hepatitis B virus [6]): 6.64
pEC50 (Hepatitis B virus [7]): 6.85
Compound: COCCCOc1ccc(-c2cc(=O)c(C(=O)O)cn2-c2ccccc2C)cc1Cl

pEC50 (Hepatitis B virus [6]): 6.65
pEC50 (Hepatitis B virus [7]): 6.71
Compound: COCCCOc1cc2c(cc1Cl)-c1cc(=O)c(C(=O)O)cn1[C@H](C)CO2

half-life [8]: 0.8 h
Vd [9]: 1 L/kg
bioavailability [10]: 10.4%
AUC(0-t) [11]: 0.478 µM·h
clearance [12]: 81 mL/min/kg
bioavailability [13]: 55.3%
Cmax [14]: 104 nM
pEC50 (Hepatitis B virus [6]): 8.89
half-life [15]: 0.6 h
clearance [16]: 33 mL/min/kg
pEC50 (Hepatitis B virus [7]): 9.30
Cmax [17]: 604 nM
Vd [18]: 2.5 L/kg
AUC(0-t) [19]: 0.228 µM·h
Compound: COCCCOc1cc2c(cc1C(C)=O)-c1cc(=O)c(C(=O)O)cn1[C@H](C(C)(C)C)CO2

AUC(0-t) [11]: 0.193 µM·h
clearance [12]: 58.5 mL/min/kg
bioavailability [13]: 18.3%
pEC50 (Hepatitis B virus [6]): 9.15
half-life [15]: 6.3 h
pEC50 (Hepatitis B virus [7]): 9.30
Cmax [17]: 203 nM
Vd [18]: 4.9 L/kg
Compound: COCCCOc1cc2c(cc1Cl)-c1cc(=O)c(C(=O)O)cn1[C@H](C(C)(C)C)CO2

pEC50 (Hepatitis B virus [6]): < 6.00
pEC50 (Hepatitis B virus [7]): < 6.00
Compound: COCCCOc1cc2c(cc1Cl)-c1cc(=O)c(C(=O)O)cn1[C@H](c1ccccc1)CO2

AUC(0-t) [11]: 1.34 µM·h
clearance [12]: 32 mL/min/kg
bioavailability [13]: 56.3%
pEC50 (Hepatitis B virus [6]): 8.18
half-life [15]: 1.6 h
pEC50 (Hepatitis B virus [7]): 8.06
Cmax [17]: 1310 nM
Vd [18]: 1.7 L/kg
Compound: COCCCOc1cc2c(cc1Cl)-c1cc(=O)c(C(=O)O)cn1[C@H](C(C)C)CO2

pEC50 (Hepatitis B virus [6]): 7.18
pEC50 (Hepatitis B virus [7]): 6.98
Compound: COCCCOc1cc2c(cc1Cl)-c1cc(=O)c(C(=O)O)cn1[C@H](C1CC1)CO2

pEC50 (Hepatitis B virus [6]): 9.05
pEC50 (Hepatitis B virus [7]): 9.10
Compound: COCCCOc1cc2c(cc1Cl)-c1cc(=O)c(C(=O)O)cn1[C@H](C(C)C)C2

Compound: COCCCOc1cc2c(cc1OC)-c1cc(=O)c(C(=O)O)cn1[C@H](C(C)C)C2
Activity [20]: Toxic
Activity (Hepatitis B virus [21]): Active
Activity [22]: Toxic
Activity [23]: Toxic
Activity [24]: Toxic
Activity [25]: Non-Toxic
pEC50 (Hepatitis B virus [6]): 9.10
Activity (Hepatitis B virus [26]): Active
Activity [27]: Toxic
pEC50 (Hepatitis B virus [7]): 9.10
Activity [28]: Toxic
Activity [29]: Non-Toxic
Activity [30]: Toxic

pEC50 (Hepatitis B virus [6]): 6.90
pEC50 (Hepatitis B virus [7]): 6.28
Compound: COCCCOc1cc2c(cc1Cl)-c1cc(=O)c(C(=O)O)cn1[C@H](C1CCC1)CO2

Compound: CC(C)OC(=O)OCOP(=O)(CO[C@H](C)Cn1cnc2c(N)ncnc21)OCOC(=O)OC(C)C
Activity (Hepatitis B virus [31]): inactive
Activity (Hepatitis B virus [32]): inactive
Activity (Hepatitis B virus [33]): Active
